# Assay results as given in PubChem BioAssay (NCI).
#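 Cultured in 96-well plates, cells were exposed to test compound for 48 hours across five concentrations. TGI marks complete inhibition of growth.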
# Experiments:
# Experiment in all cases: DTP human tumour cell line panel, 48 h
# OVCAR-4 ovarian = system: OVCAR-4 ovarian
# HOP-92 NSCLC = system: HOP-92 NSCLC
# SF-295 CNS = system: SF-295 CNS
# PC-3 prostate = system: PC-3 prostate
# HOP-62 NSCLC = system: HOP-62 NSCLC
# M14 melanoma = system: M14 melanoma
# K-562 leukemia = system: K-562 leukemia
# SK-MEL-28 melanoma = system: SK-MEL-28 melanoma
# HCT-116 colon = system: HCT-116 colon
# SNB-19 CNS = system: SNB-19 CNS
# BT-549 breast = system: BT-549 breast
# OVCAR-3 ovarian = system: OVCAR-3 ovarian
# MOLT-4 leukemia = system: MOLT-4 leukemia
# LOX IMVI melanoma = system: LOX IMVI melanoma
# NCI/ADR-RES ovarian = system: NCI/ADR-RES ovarian
# UACC-62 melanoma = system: UACC-62 melanoma
# NCI-H23 lung = system: NCI-H23 lung
# NCI-H226 lung = system: NCI-H226 lung
# HT29 colon = system: HT29 colon
# NCI-H460 lung = system: NCI-H460 lung
# KM12 colon = system: KM12 colon
# U251 CNS = system: U251 CNS
# MDA-N = system: MDA-N
# SF-268 CNS = system: SF-268 CNS
# COLO 205 colon = system: COLO 205 colon
# SW-620 colon = system: SW-620 colon
# SN12C renal = system: SN12C renal
# 786-0 renal = system: 786-0 renal
# TK-10 renal = system: TK-10 renal
# RXF 393 renal = system: RXF 393 renal
# SNB-75 CNS = system: SNB-75 CNS
# NCI-H522 lung = system: NCI-H522 lung
# MDA-MB-231 breast = system: MDA-MB-231 breast
# SK-OV-3 ovarian = system: SK-OV-3 ovarian
# OVCAR-8 ovarian = system: OVCAR-8 ovarian
# HS 578T breast = system: HS 578T breast
# CCRF-CEM leukemia = system: CCRF-CEM leukemia
# IGROV1 ovarian = system: IGROV1 ovarian
# SR leukemia = system: SR leukemia
# OVCAR-5 ovarian = system: OVCAR-5 ovarian
# MDA-MB-435 = system: MDA-MB-435
# HL-60(TB) leukemia = system: HL-60(TB) leukemia
# ACHN renal = system: ACHN renal
# SK-MEL-2 melanoma = system: SK-MEL-2 melanoma
# T-47D breast = system: T-47D breast
# MCF7 breast = system: MCF7 breast
# RPMI-8226 leukemia = system: RPMI-8226 leukemia
# HCT-15 colon = system: HCT-15 colon
# UO-31 renal = system: UO-31 renal
# UACC-257 melanoma = system: UACC-257 melanoma
# HCC-2998 colon = system: HCC-2998 colon
# DU-145 prostate = system: DU-145 prostate
# EKVX NSCLC = system: EKVX NSCLC
# A549 NSCLC = system: A549 NSCLC
# SK-MEL-5 melanoma = system: SK-MEL-5 melanoma
# MALME-3M melanoma = system: MALME-3M melanoma
compound,measurement,setting,value
CC(=Nc1ccc(Cl)c(Cl)c1)c1ccncc1,TGI,OVCAR-4 ovarian,> 100 µM
same,TGI,HOP-92 NSCLC,> 100 µM
same,TGI,SF-295 CNS,> 100 µM
same,TGI,PC-3 prostate,> 100 µM
same,TGI,HOP-62 NSCLC,> 100000 nM
same,TGI,M14 melanoma,> 100 µM
same,TGI,K-562 leukemia,> 100 µM
same,TGI,SK-MEL-28 melanoma,> 100 µM
same,TGI,HCT-116 colon,> 100 µM
same,TGI,SNB-19 CNS,> 100 µM
same,TGI,BT-549 breast,> 100 µM
same,TGI,OVCAR-3 ovarian,> 100 µM
same,TGI,MOLT-4 leukemia,> 100 µM
same,TGI,LOX IMVI melanoma,> 100 µM
same,TGI,NCI/ADR-RES ovarian,> 100 µM
same,TGI,UACC-62 melanoma,> 100 µM
same,TGI,NCI-H23 lung,> 100 µM
same,TGI,NCI-H226 lung,> 100 µM
same,TGI,HT29 colon,> 100 µM
same,TGI,NCI-H460 lung,> 100 µM
same,TGI,KM12 colon,> 100 µM
same,TGI,U251 CNS,> 100 µM
same,TGI,MDA-N,> 100 µM
same,TGI,SF-268 CNS,> 100 µM
same,TGI,COLO 205 colon,> 100 µM
same,TGI,SW-620 colon,> 100 µM
same,TGI,SN12C renal,> 100 µM
same,TGI,786-0 renal,> 100 µM
same,TGI,TK-10 renal,> 100 µM
same,TGI,RXF 393 renal,> 100 µM
same,TGI,SNB-75 CNS,> 100 µM
same,TGI,NCI-H522 lung,> 100 µM
same,TGI,MDA-MB-231 breast,> 100000 nM
same,TGI,SK-OV-3 ovarian,> 100 µM
same,TGI,OVCAR-8 ovarian,> 100 µM
same,TGI,HS 578T breast,> 100 µM
same,TGI,CCRF-CEM leukemia,> 100 µM
C=CC1(c2ccc3ccccc3c2)OCC(CC)O1 (configuration not stated),TGI,IGROV1 ovarian,> 100 µM
same,TGI,OVCAR-4 ovarian,> 100 µM
same,TGI,SR leukemia,61.4 µM
same,TGI,HOP-92 NSCLC,75.2 µM
same,TGI,SF-295 CNS,> 100 µM
same,TGI,PC-3 prostate,> 100 µM
same,TGI,OVCAR-5 ovarian,> 100 µM
same,TGI,HOP-62 NSCLC,2480 nM
same,TGI,M14 melanoma,> 100 µM
same,TGI,K-562 leukemia,85.1 µM
same,TGI,SK-MEL-28 melanoma,> 100 µM
same,TGI,MDA-MB-435,> 100 µM
same,TGI,HL-60(TB) leukemia,23.3 µM
same,TGI,HCT-116 colon,> 100 µM
same,TGI,SNB-19 CNS,> 100 µM
same,TGI,ACHN renal,> 100 µM
same,TGI,SK-MEL-2 melanoma,43.9 µM
same,TGI,T-47D breast,> 100 µM
same,TGI,MCF7 breast,> 100 µM
same,TGI,RPMI-8226 leukemia,> 100 µM
same,TGI,HCT-15 colon,> 100 µM
same,TGI,OVCAR-3 ovarian,> 100 µM
same,TGI,MOLT-4 leukemia,87.9 µM
same,TGI,UO-31 renal,> 100 µM
same,TGI,LOX IMVI melanoma,44.3 µM
same,TGI,NCI/ADR-RES ovarian,> 100 µM
same,TGI,UACC-62 melanoma,88.3 µM
same,TGI,NCI-H23 lung,96.2 µM
same,TGI,NCI-H226 lung,81.4 µM
same,TGI,HT29 colon,91.2 µM
same,TGI,NCI-H460 lung,> 100 µM
same,TGI,KM12 colon,> 100 µM
same,TGI,U251 CNS,> 100 µM
same,TGI,MDA-N,> 100 µM
same,TGI,UACC-257 melanoma,> 100 µM
same,TGI,SF-268 CNS,> 100 µM
same,TGI,HCC-2998 colon,> 100 µM
same,TGI,COLO 205 colon,> 100 µM
same,TGI,SW-620 colon,> 100 µM
same,TGI,SN12C renal,> 100 µM
same,TGI,786-0 renal,> 100 µM
same,TGI,DU-145 prostate,> 100 µM
same,TGI,TK-10 renal,> 100 µM
same,TGI,RXF 393 renal,> 100 µM
same,TGI,SNB-75 CNS,> 100 µM
same,TGI,NCI-H522 lung,> 100 µM
same,TGI,EKVX NSCLC,> 100 µM
same,TGI,A549 NSCLC,> 100 µM
same,TGI,SK-MEL-5 melanoma,> 100 µM
same,TGI,MDA-MB-231 breast,469 nM
same,TGI,SK-OV-3 ovarian,> 100 µM
same,TGI,OVCAR-8 ovarian,> 100 µM
same,TGI,HS 578T breast,77 µM
same,TGI,CCRF-CEM leukemia,73.7 µM
same,TGI,MALME-3M melanoma,93.2 µM
